Experimental data from ChEMBL document CHEMBL5380835, “Discovery of Clinically Used Octenidine as NRAS Repressor That Effectively Inhibits NRAS-Mutant Melanoma” (J Med Chem, 2023).
Activity calls are given as the source filed them. The rule behind the calls is not given here.

Tests used:
SK-MEL-2 [1] = experiment: Synergistic cytotoxicity against human SK-MEL-2 cells expressing NRAS mutant assessed as combination index measured for 48 hrs in presence of MEK-162 by MTT assay; assay type: functional
SK-MEL-2 [2] = experiment: Synergistic cytotoxicity against human SK-MEL-2 cells expressing NRAS mutant assessed as combination index measured for 48 hrs in presence of LY3214996 by MTT assay; assay type: functional
SK-MEL-2 [3] = experiment: Antiproliferative activity against human SK-MEL-2 cells assessed as cell growth inhibition incubated for 48 hrs by EdU assay; assay type: functional, cell-based; details: SK-MEL-2, 48 h
SK-MEL-2 [4] = experiment: Cytotoxicity against human SK-MEL-2 cells assessed as cell growth inhibition incubated for 24 hrs by MTT assay; assay type: functional, cell-based; details: SK-MEL-2, 24 h
SK-MEL-2 [5] = experiment: Cytotoxicity against human SK-MEL-2 cells expressing NRAS mutant assessed as cell growth inhibition incubated for 48 hrs by MTT assay; assay type: functional, cell-based; details: SK-MEL-2, 48 h
SK-MEL-2 [6] = experiment: Downregulation of NRAS protein translation in human SK-MEL-2 cells incubated for 24 hrs by Western blot analysis; assay type: functional, cell-based; details: dose <= 1.5 µM
[7] = Binding affinity to NRAS RNA G-quadruplex 5'-r(UGUGGGAGGGGCGGGUCUGGG)-3' (unknown origin) assessed as decrease in TO fluorescence at 0.25 uM by TO displacement assay
[8] = Binding affinity to NRAS RNA G-quadruplex 5'-r(UGUGGGAGGGGCGGGUCUGGG)-3' (unknown origin) by TO displacement assay
RNA [UNDEFINED MUTATION] = experiment: Binding affinity to NRAS RNA mutant G-quadruplex 5'-r(UGUAAGAGAAGCGAGUCUGAG)-3' (unknown origin) by TO displacement assay; assay type: nucleic-acid assay
DNA = experiment: Binding affinity to total DNA (unknown origin) by TO displacement assay; assay type: nucleic-acid assay
RNA = experiment: Binding affinity to total RNA (unknown origin) by TO displacement assay; assay type: nucleic-acid assay
[9] = Binding affinity to 5'-FAM-labeled to NRAS RNA G-quadruplex 5'-r(UGUGGGAGGGGCGGGUCUGGG)-3' (unknown origin) assessed as dissociation constant by fluorescence quenching assay
[10] = Binding affinity to 3'-FAM-labeled to NRAS RNA G-quadruplex 5'-r(UGUGGGAGGGGCGGGUCUGGG)-3' (unknown origin) assessed as dissociation constant by fluorescence quenching assay
HEK293 = experiment: Binding affinity to NRAS RNA G-quadruplex 5'-r(UGUGGGAGGGGCGGGUCUGGG)-3' (unknown origin) transfected in HEK293 cells assessed as decrease in NRAS […] upto 1.5 uM incubated for 24 hrs by Dual luciferase reporter assay; assay type: functional, cell-based
[11] = Stabilization of NRAS RNA G-quadruplex 5'-r(UGUGGGAGGGGCGGGUCUGGG)-3' (unknown origin) at 10 uM
[12] = Disruption of DHX36/NRAS RNA G-quadruplex 5'-r(UGUGGGAGGGGCGGGUCUGGG)-3' (unknown origin) using RNA substrate incubated for 1 hr by ELISA method
SK-MEL-2 [13] = experiment: Disruption of DHX36/NRAS RNA G-quadruplex 5'-r(UGUGGGAGGGGCGGGUCUGGG)-3' in human SK-MEL-2 cells at 1.5 uM incubated for 24 hrs by RNA Immunoprecipitation assay; assay type: cell-based
SK-MEL-2 [14] = experiment: Downregulation of phosphorylated MEK in human SK-MEL-2 cells expressing NRAS mutant incubated for 48 hrs by Western blot analysis; assay type: functional, cell-based; details: dose <= 1.5 µM
SK-MEL-2 [15] = experiment: Downregulation of phosphorylated ERK in human SK-MEL-2 cells expressing NRAS mutant at 1.5 uM by Western blot analysis; assay type: functional, cell-based; details: time <= 48.0 hrs, TDE = time-dependent effect
SK-MEL-2 [16] = experiment: Downregulation of phosphorylated ERK in human SK-MEL-2 cells expressing NRAS mutant incubated for 48 hrs by Western blot analysis; assay type: functional, cell-based; details: dose <= 1.5 µM
SK-MEL-2 [17] = experiment: Downregulation of phosphorylated AKT in human SK-MEL-2 cells expressing NRAS mutant incubated for 48 hrs by Western blot analysis; assay type: functional, cell-based; details: dose <= 1.5 µM
SK-MEL-2 [18] = experiment: Downregulation of phosphorylated mTOR in human SK-MEL-2 cells expressing NRAS mutant incubated for 48 hrs by Western blot analysis; assay type: functional, cell-based; details: dose <= 1.5 µM
SK-MEL-2 [19] = experiment: Downregulation of phosphorylated mTOR in human SK-MEL-2 cells expressing NRAS mutant at 1.5 uM by Western blot analysis; assay type: functional, cell-based; details: time <= 48.0 hrs, TDE = time-dependent effect
SK-MEL-2 [20] = experiment: Downregulation of KRAS protein level in human SK-MEL-2 cells upto 1.5 uM incubated for 48 hrs by Western blot analysis; assay type: functional, cell-based
SK-MEL-2 [21] = experiment: Antiproliferative activity against human SK-MEL-2 cells assessed as cell growth inhibition incubated for 12 hrs by EdU assay; assay type: functional, cell-based; details: SK-MEL-2, 12 h
SK-MEL-2 [22] = experiment: Antiproliferative activity against human SK-MEL-2 cells assessed as cell growth inhibition incubated for 24 hrs by EdU assay; assay type: functional, cell-based; details: SK-MEL-2, 24 h
SK-MEL-2 [23] = experiment: Induction of cell cycle arrest in human SK-MEL-2 cells assessed as accumulation at S phase at 1.5 uM measured after 24 hrs by PI staining based analysis; assay type: functional
SK-MEL-2 [24] = experiment: Induction of cell cycle arrest in human SK-MEL-2 cells assessed as accumulation at G2/M phase at 1.5 uM measured after 48 hrs by PI staining based analysis; assay type: functional
SK-MEL-2 [25] = experiment: Induction of apoptosis in human SK-MEL-2 cells assessed as late apoptotic cells at 1.5 uM measured after 24 hrs by PI/FITC Annexin V staining based flow cytometry; assay type: functional, cell-based
SK-MEL-2 [26] = experiment: Induction of autophagy in human SK-MEL-2 cells assessed as […] at 1.5 uM measured upto 48 hrs by Western bot analysis; assay type: functional, cell-based
SK-MEL-2 [27] = experiment: Cytotoxicity against human SK-MEL-2 cells upto 10 uM in presence of 3mA; assay type: functional, cell-based
SK-MEL-2 [28] = experiment: Cytotoxicity against human SK-MEL-2 cells upto 10 uM in presence of CQ; assay type: functional, cell-based
SK-MEL-2 [29] = experiment: Cytotoxicity against human SK-MEL-2 cells expressing Tet-on NRAS Q61R assessed as cell growth inhibition; assay type: functional, cell-based
SK-MEL-2 [30] = experiment: Cytotoxicity against human SK-MEL-2 cells expressing Tet-on NRAS Q61R assessed as cell growth inhibition in presence of doxycycline; assay type: functional, cell-based
SK-MEL-2 [31] = experiment: Cytotoxicity against human SK-MEL-2 cells overexpressing Tet-on NRAS Q61R assessed as cell growth inhibition; assay type: functional, cell-based
SK-MEL-2 [32] = experiment: Cytotoxicity against human SK-MEL-2 cells overexpressing Tet-on NRAS Q61R assessed as cell growth inhibition in presence of doxycycline; assay type: functional, cell-based
SK-MEL-2 [33] = experiment: Antiproliferative activity against human SK-MEL-2 cells assessed as inhibition of colony formation at 1.5 uM measured after 10 days by crystal violet staining based assay relative to control; assay type: functional; details: SK-MEL-2, 240 h, time 10 day
SK-MEL-2 [34] = experiment: Cytotoxicity against human SK-MEL-2 cells expressing NRAS mutant assessed as cell growth inhibition upto 50 uM measured for 12 to 96 hrs by MTT assay; assay type: functional, cell-based; details: time 12-96 hrs
SK-MEL-2 [35] = experiment: Antiproliferative activity against human SK-MEL-2 cells assessed as inhibition of cell survival upto 50 uM incubated for 24 to 96 hrs by MTT assay; assay type: functional, cell-based; details: time 24-96 hrs
SK-MEL-2 [36] = experiment: Suppression of NRAS protein translation in human SK-MEL-2 cells upto 1.5 uM incubated for 48 hrs by Western blot analysis; assay type: functional, cell-based
SK-MEL-2 [37] = experiment: Cytotoxicity against human SK-MEL-2 cells assessed as inhibition of cell viability treated for 48 hrs measured after 24 hrs; assay type: functional, cell-based
SK-MEL-2 [38] = experiment: Cytotoxicity against human SK-MEL-2 cells assessed as inhibition of cell viability treated for 48 hrs measured after 48 hrs; assay type: functional, cell-based; details: SK-MEL-2, 48 h
SK-MEL-2 [39] = experiment: Cytotoxicity against human SK-MEL-2 cells assessed as inhibition of cell viability treated for 72 hrs measured after 24 hrs; assay type: functional, cell-based
SK-MEL-2 [40] = experiment: Cytotoxicity against human SK-MEL-2 cells assessed as inhibition of cell viability treated for 72 hrs measured after 72 hrs; assay type: functional, cell-based; details: SK-MEL-2, 72 h
SK-MEL-2 [41] = experiment: Antitumor activity against human SK-MEL-2 cells xenografted in BALB/c nude mouse assessed as tumor growth inhibition at 1 mg/kg/day, ip by electronic caliper method; assay type: functional, organism-based; details: time 30.0 day, TDE = time-dependent effect
SK-MEL-2 [42] = experiment: Antitumor activity against human SK-MEL-2 cells xenografted in BALB/c nude mouse assessed as reduction in tumor weight at 1 mg/kg/day, ip administered for 30 days by electronic caliper method; assay type: functional, organism-based; details: time 30.0 day
[43] = Toxicity in BALB/c mouse xenografted with human SK-MEL-2 cells assessed as change in body weight at 1 mg/kg/day, ip administered for 30 days; assay type: organism-based; details: in vivo, 720 h, time 30 day
[44] = Toxicity in BALB/c mouse xenografted with human SK-MEL-2 cells assessed as change in viscera pattern at 1 mg/kg/day, ip administered for 30 days by HE staining based analysis; assay type: organism-based; details: in vivo, 720 h, time 30 day
SK-MEL-2 [45] = experiment: Downregulation of NRAS expression in human SK-MEL-2 cells xenografted in BALB/c nude mouse at 1 mg/kg/day, ip administered for 30 days by IHC analysis; assay type: functional, organism-based; details: time 30.0 day
SK-MEL-2 [46] = experiment: Antitumor activity against human SK-MEL-2 cells xenografted in BALB/c nude mouse assessed as T/C ratio at 1 mg/kg/day, ip administered for 30 days relative to control; assay type: functional; details: time 30 day
SK-MEL-2 [47] = experiment: Antitumor activity against human SK-MEL-2 cells xenografted in BALB/c nude mouse assessed as tumor growth inhibition at 1 mg/kg/day, ip administered for 30 days relative to control; assay type: functional; details: SK-MEL-2, 720 h, time 30 day, read-out: TGI

`NC1(c2ccc(-c3nc4ccn5c(=O)[nH]nc5c4cc3-c3ccccc3)cc2)CCC1` [MK-2206] gave a CI (SK-MEL-2 [1]) of 0.5 and a CI (SK-MEL-2 [2]) of 0.5.

`CCCCCCCCN=c1ccn(CCCCCCCCCCn2ccc(=NCCCCCCCC)cc2)cc1.Cl.Cl` [OCTENIDINE HYDROCHLORIDE] showed an IC50 (SK-MEL-2 [3]) of 0.49 µM, an IC50 (SK-MEL-2 [4]) of 2.34 µM and an IC50 (SK-MEL-2 [5]) of 1.34 µM. The Activity (SK-MEL-2 [6]) was “Dose-Dependent Effect”, the Activity [7] was “Active” and the EC50 [8] was 1.6 µM. The Activity (RNA [UNDEFINED MUTATION]) was “inactive”, the Activity (DNA) was “inactive” and the Activity (RNA) was “Active”. The Kd [9] was 0.49 µM, the Kd [10] was 0.23 µM and the Activity (HEK293) was “Active”. The Activity [11] was “inactive”, the IC50 [12] was 2.4 µM and the Activity (SK-MEL-2 [13]) was “Active”. The Activity (SK-MEL-2 [14]) was “Dose-Dependent Effect”, the Activity (SK-MEL-2 [15]) was “Tde” and the Activity (SK-MEL-2 [16]) was “Dose-Dependent Effect”. For the same compound, the Activity (SK-MEL-2 [17]) was “Dose-Dependent Effect”, the Activity (SK-MEL-2 [18]) was “Dose-Dependent Effect” and the Activity (SK-MEL-2 [19]) was “Tde”. The Activity (SK-MEL-2 [20]) was “inactive”, the IC50 (SK-MEL-2 [21]) was 2.05 µM and the IC50 (SK-MEL-2 [22]) was 1.08 µM. The Activity (SK-MEL-2 [23]) was “Active”, the Activity (SK-MEL-2 [24]) was “Active” and the Activity (SK-MEL-2 [25]) was “Active”. For the same compound, the Activity (SK-MEL-2 [26]) was “Active”, the Activity (SK-MEL-2 [27]) was “Active” and the Activity (SK-MEL-2 [28]) was “Active”. For the same compound, the IC50 (SK-MEL-2 [29]) was 6.3 µM, the IC50 (SK-MEL-2 [30]) was 12.4 µM and the Activity (SK-MEL-2 [31]) was “Active”. For the same compound, the Activity (SK-MEL-2 [32]) was “Active”, the inhibition at 1.5 µM (SK-MEL-2 [33]) was 100% and the inhibition (SK-MEL-2 [34]) was “Active”. For the same compound, the inhibition (SK-MEL-2 [35]) was “Active”, the Activity (SK-MEL-2 [36]) was “Active” and the IC50 (SK-MEL-2 [37]) was 2.11 µM. The IC50 (SK-MEL-2 [38]) was 2.1 µM, the IC50 (SK-MEL-2 [39]) was 0.48 µM and the IC50 (SK-MEL-2 [40]) was 0.46 µM. The Activity (SK-MEL-2 [41]) was “Tde”, the Activity (SK-MEL-2 [42]) was “Active” and the Activity [43] was “Non-Toxic”. For the same compound, the Activity [44] was “Non-Toxic”, the Activity (SK-MEL-2 [45]) was “Active” and the T/C (SK-MEL-2 [46]) was 38.5%. For the same compound, the inhibition in vivo at 1 mg/kg/day (SK-MEL-2 [47]) was 52.4%.
